Test results as given in paper PMC4698714, “Allosteric effects of chromophore interaction with dimeric near-infrared fluorescent proteins engineered from bacterial phytochromes” (Scientific Reports, 2016).

Target: T1, iRFP713 (Rhodopseudomonas palustris, UniProt G1FNL7, C15S)
T1 construct: gene iRFP; N-terminal polyhistidine tag; E. coli LMG194 with heme oxygenase; dimer
Test: zinc-staining SDS-PAGE, absorption/fluorescence spectra, GdnHCl unfolding
Conditions: noncovalent; GAF pocket; no BV-binding Cys

## C=CC1=C(C)C(=Cc2[nH]c(C=C3N=C(C=C4NC(=O)C(C)=C4C=C)C(C)=C3CCC(=O)O)c(CCC(=O)O)c2C)NC1=O [biliverdin IXα]
  zinc-staining SDS-PAGE, absorption/fluorescence spectra, GdnHCl unfolding: BV was the most weakly associated with NIR FP variants having no Cys residues
